Laboratory results as given in paper PMC6155812, “Synthesis, Anti-Breast Cancer Activity, and Molecular Docking Study of a New Group of Acetylenic Quinolinesulfonamide Derivatives” (Molecules : A Journal of Synthetic Chemistry and Natural …, 2017).
Like-named read-outs stand apart in the source and are kept apart here.

Tests used:
[1] = tested on: T47D (human ductal carcinoma) cells; assay: WST-1 antiproliferative assay, T47D; assay type: cell-based; conditions: WST-1 assay, 3–4 days, 0.5–250 µM, neg = negative in concentration used; for IC50: read-out: IC50 ± SD, T47D
Source text: (§1) Encouraged by promising results in the field of antiproliferative derivatives of acetylenic sulfanylquinoline derivatives, in this study the decision was made to combine the biological potentials of sulfamoylquinoline and alkynyl moieties, with the intention of obtaining compounds with better activity against breast cancer cell lines. The SAR analyses of the acetylenic sufamoylquinoline were based on the cell growth inhibition potencies on the MCF-7 (human adenocarcinoma), MDA-MB-231 and T-47D (human ductal carcinoma) cells using the WST-1 assay. The results from the in vitro cytotoxicity assay are expressed as the concentration of compound (µM) that inhibited the proliferation of 50% of the tumor cells, compared to the control untreated cells (IC50). Cisplatin was used as a positive control to induce cell death.
(§2) The cell lines (MCF-7, MDA-MB-231, and nontumor HFF-1) were cultured and kept in Dubecco’s modified Eagle medium (DMEM) supplemented with 10% fetal bovine serum (FBS) 1.000 IU·mL^−1 penicillin and 10 mg·m^−1·mL^−1 streptomycin in atmosphere with 5% CO2 at 37 °C. The cells were seeded using a series of standard 96-well plates (Corning). Test compounds were prepared at a concentration of 5.0 mM dimethyl sulfoxide (DMSO). Freshly prepared dilutions of the test compounds in a culture medium at a concentration of 0.5–250 µM were added to the microtiter plates and the cells were grown for 3–4 days. Solvent control (DMSO) was included to check its potential inhibitory activity at the concentration used. After incubation, the cell growth rate was evaluated by performing a WST-1 assay. The amount of formazan produced was measured at 450 nm. Expermentally determined absorbance values were transformed into the cell percentage of growth as described previously. Each test point was performed in triplicate for each tested compound cocentration. The results were statistically analyzed using PraphPad Prism 6 software (Graphpad Software, Inc., La Jolla, CA, USA).

[2] = tested on: HFF-1 normal fibroblasts; assay: WST-1 cytotoxicity assay, normal fibroblasts HFF-1; assay type: cell-based, human; conditions: 3–4 days, 0.5–250 µM, neg = negative in concentration used; for IC50: read-out: IC50 ± SD, HFF-1
Source text: as §1, §2

[3] = tested on: MCF-7 (human adenocarcinoma) cells; assay: WST-1 antiproliferative assay, MCF-7; assay type: cell-based; conditions: 3–4 days, 0.5–250 µM, neg = negative in concentration used; for IC50: read-out: IC50 ± SD, MCF-7
Source text: as §1, §2

[4] = tested on: MDA-MB-231 cells; assay: WST-1 antiproliferative assay, MDA-MB-231; assay type: cell-based, human; conditions: 3–4 days, 0.5–250 µM, neg = negative in concentration used, read-out: IC50 ± SD, MDA-MB-231
Source text: as §1, §2

[5] = Homo sapiens, HFF-1, WST-1 assay
[6] = Homo sapiens, MCF7, WST-1 assay
[7] = Homo sapiens, MDA-MB-231, WST-1 assay

| Structure (SMILES) | IC50 ([1]; Homo sapiens, T47D) [µM] | IC50 [3, 6] [µM] | melting point [°C] | IC50 [4, 7] [µM] | IC50 ± SD, MCF-7 ([3]; WST-1 assay) | IC50 ± SD, T47D [1] | IC50 ([1]; listed as 4-(3-propynylthio)-7-[N-methyl-N-(3-propynyl)sulfamoyl]quinoline) [µM] | IC50 [1] [µM] | IC50 ([2]; WST-1 assay) [µM] | IC50 ([3]; WST-1 assay) [µM] | IC50 ([4]; WST-1 assay) [µM] | IC50 [2, 5] [µM] | IC50 ± SD, HFF-1 ([2]; WST-1 assay) |
| --- | --- | --- | --- | --- | --- | --- | --- | --- | --- | --- | --- | --- | --- |
| N.N.[Cl][Pt][Cl] [Cisplatin, reference compound] | – | – | – | – | – | – | – | 30.3 ± 0.34 | 7.2 ± 0.6 | 77.76 ± 0.76 | 17.6 ± 0.31 | – | – |
| C#CCN(C)S(=O)(=O)c1ccc2ncc(S(=O)(=O)N(C)CC#C)cc2c1 [compound 12, 3,6-Di[N-methyl-N-(3-propynyl)sulfamoyl]quinoline] | 2.5 ± 0.09 | 3.14 ± 0.34 | 138 to 139 | 2.86 ± 0.34 | – | – | – | – | – | – | – | 375.5 ± 3 | – |
| O=S(=O)(Cl)c1cnc2ccc(Cl)cc2c1 [compound 13, 6-chloro-3-chlorosulfonylquinoline] | – | – | 109 to 110 | – | – | – | – | – | – | – | – | – | – |
| C#CCN(C)S(=O)(=O)c1ccc2c(Cl)ccnc2c1 [2e, 4-Chloro-7-[N-methyl-N-(3-propynyl)sulfamoyl]quinoline] | 26.8 ± 0.67 | – | 119 to 120 | 59.3 ± 1.56 | – | – | – | – | – | – | – | – | neg |
| C#CCN(C)S(=O)(=O)c1cccc2c(Cl)ccnc12 [2f, 4-Chloro-8-[N-methyl-N-(3-propynyl)sulfamoyl]quinoline] | 295.6 ± 2.56 | 61.2 ± 1.65 | 130 to 133 | 204 ± 3.1 | – | – | – | – | – | – | – | 153 ± 3 | – |
| C#CCN(C)S(=O)(=O)c1cnc2ccccc2c1Cl [2c, 4-Chloro-3-[N-methyl-N-(3-propynyl)sulfamoyl]quinoline] | 2.24 ± 0.11 | – | 120 to 121 | 0.27 ± 0.02 | – | – | – | – | – | – | – | 85.4 ± 1.6 | – |
| C#CC[Se]c1ccc2cc(S(=O)(=O)N(C)CC#C)ccc2n1 [6b, 2-(3-Propynylseleno)-6-[N-methyl-N-(3-propynyl)sulfamoyl]quinoline] | 10.6 ± 0.15 | 22.72 ± 0.12 | 179 to 180 | – | – | – | – | – | – | – | 1.32 ± 0.12 | 92.9 ± 2 | – |
| C#CCSc1ccc2ncc(SCC#C)cc2c1 [compound 11, 3,6-Di(3-propynylthio)quinoline] | 127 ± 2.01 | 7.36 ± 0.45 | 97 to 98 | 8.73 ± 0.78 | – | – | – | – | – | – | – | 176 ± 3 | – |
| C#CC[Se]c1c(S(=O)(=O)N(C)CC#C)cnc2ccccc12 [6c, 4-(3-Propynylseleno)-3-[N-methyl-N-(3-propynyl)sulfamoyl]quinoline] | 313 ± 7.98 | 113 | 122 to 123 | 17.6 ± 0.87 | – | – | – | – | – | – | – | – | neg |
| C#CC[Se]c1ccnc2cc(S(=O)(=O)N(C)CC#C)ccc12 [6e, 4-(3-Propynylseleno)-7-[N-methyl-N-(3-propynyl)sulfamoyl]quinoline] | 160 ± 3.23 | 109 ± 2.11 | 108 to 109 | 23.5 ± 1.02 | – | – | – | – | – | – | – | – | neg |
| C#CC[Se]c1ccnc2ccc(S(=O)(=O)N(C)CC#C)cc12 [6d, 4-(3-Propynylseleno)-6-[N-methyl-N-(3-propynyl)sulfamoyl]quinoline] | – | 259 ± 5.45 | 139 to 140 | 0.68 ± 0.09 | – | neg | – | – | – | – | – | 331 ± 4 | – |
| C#CCN(C)S(=O)(=O)c1cc2ccccc2nc1Cl [2a, 2-Chloro-3-[N-methyl-N-(3-propynyl)sulfamoyl]quinoline] | – | 351 ± 6.32 | 110 to 111 | 140 ± 1.98 | – | neg ^1 | – | – | – | – | – | – | neg |
| C#CC[Se]c1ccnc2c(S(=O)(=O)N(C)CC#C)cccc12 [6f, 4-(3-Propynylseleno)-8-[N-methyl-N-(3-propynyl)sulfamoyl]quinoline] | 55.6 ± 1.78 | 0.26 ± 0.01 | 111 to 115 | 64.5 ± 1.98 | – | – | – | – | – | – | – | 317 ± 5.46 | – |
| C#CCN(C)S(=O)(=O)c1ccc2nc(Cl)ccc2c1 [2b, 2-Chloro-6-[N-methyl-N-(3-propynyl)sulfamoyl]quinoline] | 0.3 ± 0.03 | 22.9 ± 1.45 | 140 to 141 | 0.24 ± 0.01 | – | – | – | – | – | – | – | – | neg |
| C#CCN(C)S(=O)(=O)c1cnc2ccc(Cl)cc2c1 [compound 14, 6-Chloro-3-[N-methyl-N-(3-propynyl)sulfamoyl]quinoline] | 11.7 ± 1.11 | 118 ± 2.04 | 146 to 147 | 26.8 ± 1.45 | – | – | – | – | – | – | – | 71.8 ± 1.6 | – |
| C#CC[Se]c1nc2ccccc2cc1S(=O)(=O)N(C)CC#C [6a, 2-(3-Propynylseleno)-3-[N-methyl-N-(3-propynyl)sulfamoyl]quinoline] | 146 ± 1.98 | 237.9 ± 2.11 | 109 to 110 | 0.42 ± 0.01 | – | – | – | – | – | – | – | – | neg |
| C#CCN(C)S(=O)(=O)c1ccc2nccc(Cl)c2c1 [2d, 4-Chloro-6-[N-methyl-N-(3-propynyl)sulfamoyl]quinoline] | 292 ± 2.34 | 233.8 ± 1.56 | 124 to 125 | 180 ± 2.35 | – | – | – | – | – | – | – | 425.2 ± 1.46 | – |

The next lines start with results.

| IC50 ([1]; Homo sapiens, T47D) [µM] | IC50 [3, 6] [µM] | melting point [°C] | IC50 [4, 7] [µM] | IC50 ± SD, MCF-7 ([3]; WST-1 assay) | IC50 ± SD, T47D [1] | IC50 ([1]; listed as 4-(3-propynylthio)-7-[N-methyl-N-(3-propynyl)sulfamoyl]quinoline) [µM] | Structure (SMILES) | IC50 [1] [µM] | IC50 ([2]; WST-1 assay) [µM] | IC50 ([3]; WST-1 assay) [µM] | IC50 ([4]; WST-1 assay) [µM] | IC50 [2, 5] [µM] | IC50 ± SD, HFF-1 ([2]; WST-1 assay) |
| --- | --- | --- | --- | --- | --- | --- | --- | --- | --- | --- | --- | --- | --- |
| 0.27 ± 0.03 | 13.09 ± 0.11 | 119 to 120 | 21.2 ± 0.96 | – | – | – | C#CCSc1ccnc2c(S(=O)(=O)N(C)CC#C)cccc12 [5f, 4-(3-Propynylthio)-8-[N-methyl-N-(3-propynyl)sulfamoyl]quinoline] | – | – | – | – | 366.1 ± 1.46 | – |
| 205 ± 6.02 | – | 101 to 102 | 116 ± 2.13 | neg | – | – | C#CCSc1c(S(=O)(=O)N(C)CC#C)cnc2ccccc12 [5c, 4-(3-Propynylthio)-3-[N-methyl-N-(3-propynyl)sulfamoyl]quinoline] | – | – | – | – | – | neg |
| – | 288 ± 3.45 | 100 to 101 | 11.8 ± 0.87 | – | neg | – | C#CCSc1nc2ccccc2cc1S(=O)(=O)N(C)CC#C [5a, 2-(3-Propynylthio)-3-[N-methyl-N-(3-propynyl)sulfamoyl]quinoline] | – | – | – | – | – | neg |
| – | 236.8 ± 2.34 | 139 to 140 | 202 ± 5.46 | – | neg | – | C#CCSc1ccnc2ccc(S(=O)(=O)N(C)CC#C)cc12 [5d, 4-(3-Propynylthio)-6-[N-methyl-N-(3-propynyl)sulfamoyl]quinoline] | – | – | – | – | – | neg |
| – | 0.27 ± 0.03 | 113 to 114 | 7.12 ± 0.78 | – | – | 0.07 | C#CCSc1ccnc2cc(S(=O)(=O)N(C)CC#C)ccc12 [5e, 4-(3-Propynylthio)-7-[N-methyl-N-(3-propynyl)sulfamoyl]quinoline] | 0.21 ± 0.01 | – | – | – | 276.1 ± 2.6 | – |
| 182 ± 3.23 | 18.4 ± 0.98 | 164 to 165 | – | – | – | – | C#CCSc1ccc2cc(S(=O)(=O)N(C)CC#C)ccc2n1 [5b, 2-(3-Propynylthio)-6-[N-methyl-N-(3-propynyl)sulfamoyl]quinoline] | – | – | – | 0.27 ± 0.03 | – | neg |
